Values quoted from earlier work as cited in patent US6309839A, “Screening methods for compounds that inhibit or stimulate helicase enzyme activity” (Board of Trustees of the University of Arkansas, priority 2000, dated 2001).

Target: streptavidin (Streptomyces avidinii, UniProt P22629)
Conditions: no helicase present

Chain of streptavidin (P22629 25-183): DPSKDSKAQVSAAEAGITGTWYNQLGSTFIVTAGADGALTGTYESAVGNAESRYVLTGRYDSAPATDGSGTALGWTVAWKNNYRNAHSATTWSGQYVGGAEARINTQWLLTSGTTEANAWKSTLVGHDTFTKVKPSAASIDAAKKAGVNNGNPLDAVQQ

## O=C(O)CCCC[C@@H]1SC[C@@H]2NC(=O)N[C@@H]21 [biotin]
  spontaneous dissociation rate of streptavidin from biotin: 0.00033 min⁻¹
